Reference: patent US9353082B2, “Pharmaceutical compounds” (BIAL—PORTELA & CA, S.A., priority 2008, dated 2016)

What was measured:
FAAH [1] = target: T1, FAAH (Rattus norvegicus, UniProt P97612); test: In vitro FAAH activity in rat brain membranes, 3H-AEA substrate, % of control; format: biochemical, Wistar rats; conditions: low value = strong inhibitor; for In Vitro FAAH activity, 100 nM: 100 nM test compound; for In Vitro 100 nM (FAAH activity, % of control): rat brain membranes, compound at 100 nM
T1 construct: Frozen brains (without cerebellum) from Wistar rats were used; from tissue; host or cells: Wistar rat brain (without cerebellum), washed membrane pellets
T1 sequence (P97612 1-579): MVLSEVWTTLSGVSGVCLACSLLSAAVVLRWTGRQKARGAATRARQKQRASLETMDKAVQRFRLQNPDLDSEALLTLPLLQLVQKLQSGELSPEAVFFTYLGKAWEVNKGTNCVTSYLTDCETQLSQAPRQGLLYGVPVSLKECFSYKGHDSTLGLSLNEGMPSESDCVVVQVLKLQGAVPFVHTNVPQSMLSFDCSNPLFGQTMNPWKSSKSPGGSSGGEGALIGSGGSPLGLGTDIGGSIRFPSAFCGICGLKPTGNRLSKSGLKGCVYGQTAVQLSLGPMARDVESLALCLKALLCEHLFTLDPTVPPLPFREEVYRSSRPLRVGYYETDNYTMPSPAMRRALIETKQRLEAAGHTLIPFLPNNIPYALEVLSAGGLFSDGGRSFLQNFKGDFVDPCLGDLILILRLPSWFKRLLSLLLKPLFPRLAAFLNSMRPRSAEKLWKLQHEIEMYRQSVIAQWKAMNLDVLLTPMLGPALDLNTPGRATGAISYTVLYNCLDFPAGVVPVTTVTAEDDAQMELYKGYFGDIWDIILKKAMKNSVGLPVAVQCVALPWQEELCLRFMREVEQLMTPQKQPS
How it was run: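 FAAH activity measured as 3H-ethanolamine released from 2 μM [3H]AEA over 10 min by rat brain membrane preparation, after 15 min 37 °C preincubation with test compound at 10 or 0.1 μM. Charcoal-separated supernatant scintillation-counted; values expressed as % of control minus no-protein blank.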

FAAH [2] = target: T2, FAAH (Mus musculus, UniProt O08914); test: In vivo FAAH inhibition after oral dosing, remaining activity in brain homogenate (BRh, central nervous tissue); set-up: species or system NMRI mice; conditions: brain homogenate; for In Vivo BRh 3 mg·kg 8 h (remaining FAAH activity, % of control): 8 h after dosing, low value = strong inhibitor
T2 construct: A fragment of liver, left lung lobe and brain without cerebellum were removed; from tissue; host or cells: male NMRI mice; brain (without cerebellum) and liver homogenates
T2 sequence (O08914 1-579): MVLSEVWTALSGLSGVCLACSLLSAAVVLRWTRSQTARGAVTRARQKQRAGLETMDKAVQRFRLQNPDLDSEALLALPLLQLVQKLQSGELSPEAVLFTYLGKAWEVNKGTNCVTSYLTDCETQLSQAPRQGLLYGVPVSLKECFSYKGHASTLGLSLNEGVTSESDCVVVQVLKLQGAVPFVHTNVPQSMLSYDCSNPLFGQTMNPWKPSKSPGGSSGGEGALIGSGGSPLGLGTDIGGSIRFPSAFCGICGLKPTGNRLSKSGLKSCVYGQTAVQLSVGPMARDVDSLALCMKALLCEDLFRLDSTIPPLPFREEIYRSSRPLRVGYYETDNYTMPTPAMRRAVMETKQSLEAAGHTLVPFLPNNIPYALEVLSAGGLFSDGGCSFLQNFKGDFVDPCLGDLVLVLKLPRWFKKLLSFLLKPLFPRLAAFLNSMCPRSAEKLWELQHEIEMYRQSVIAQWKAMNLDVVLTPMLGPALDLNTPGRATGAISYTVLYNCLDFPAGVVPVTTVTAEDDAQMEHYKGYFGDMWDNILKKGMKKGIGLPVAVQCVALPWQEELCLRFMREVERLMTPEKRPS
How it was run: (§1)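 Remaining FAAH activity is given as % of vehicle-treated controls after blank subtraction, measured by radiolabelled AEA hydrolysis (2 μM AEA, 5 nM 3H-AEA, 37 °C) in brain (10 min) or liver (7 min) homogenates. These came from fasted male NMRI mice dosed orally at 30 or 3 mg/kg.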

FAAH [3] = target: T2, FAAH; test: In vivo FAAH inhibition after oral dosing, remaining activity in liver homogenate (LVh, peripheral tissue); set-up: species or system NMRI mice; conditions: liver homogenate; for In Vivo LVh 3 mg·kg 8 h (remaining FAAH activity, % of control): 8 h after dosing, low value = strong inhibitor
How it was run: as §1

| Structure (SMILES) | In Vitro FAAH activity, 100 nM (FAAH [1]) | In Vivo BRh 3 mg/kg 8 h, remaining FAAH activity (FAAH [2]) | In Vivo LVh 3 mg/kg 8 h, remaining FAAH activity (FAAH [3]) | In Vitro 100 nM (FAAH activity, % of control) (FAAH [1]) | In Vivo BRh 3 mg·kg 8 h (remaining FAAH activity, % of control) (FAAH [2]) | In Vivo LVh 3 mg·kg 8 h (remaining FAAH activity, % of control) (FAAH [3]) | In Vivo BRh 30 mg/kg 1 h, remaining FAAH activity (FAAH [2]; 30 mg/kg, 1 h) | In Vivo LVh 30 mg/kg 1 h, remaining FAAH activity (FAAH [3]; 30 mg/kg, 1 h) |
| --- | --- | --- | --- | --- | --- | --- | --- | --- |
| CC1(C)COCN1C(=O)n1cnc(-c2ccc(Oc3ccc(C(N)=O)cc3)cc2)n1 [Compound 187, 4-(4-(1-(4,4-dimethyloxazolidine-3-carbonyl)-1H-1,2,4-triazol-3-yl)phenoxy)benzamide] | 92.8 % of control | 85.6 % of control | 108.6 % of control | – | – | – | – | – |
| O=C(NC1CCCCC1)n1nnc2ccccc21 [Compound 87, N-cyclohexyl-1H-benzo[d][1,2,3]triazole-1-carboxamide] | 0 % of control | 3.4 % of control | 4 % of control | – | – | – | – | – |
| Cl.N#Cc1ccc(Oc2ccc(-c3ncn(C(=O)N4CCN(c5ccccc5)CC4)n3)cc2)cc1 [Compound 145, 4-(4-(1-(4-phenylpiperazine-1-carbonyl)-1H-1,2,4-triazol-3-yl)phenoxy)benzonitrile hydrochloride] | 0.3 % of control | 89.9 % of control | 116.5 % of control | – | – | – | – | – |
| O=C(N1CCC(c2nc(-c3cccnc3)no2)CC1)n1nnc2ccccc21 [Compound 116, (1H-benzo[d][1,2,3]triazol-1-yl)(4-(3-(pyridin-3-yl)-1,2,4-oxadiazol-5-yl)piperidin-1-yl)methanone] | 0.5 % of control | 126.2 % of control | 113.2 % of control | – | – | – | – | – |
| CN(C(=O)n1cnc(-c2ccc[n+]([O-])c2)c1)C1CCCCC1 [Compound no. 362, 3-(1-(cyclohexyl(methyl)carbamoyl)-1H-imidazol-4-yl)pyridine 1-oxide] | – | – | – | 78.2 % of control | 1.6 % of control | 1.7 % of control | – | – |
| CN(Cc1ccccc1)C(=O)n1cnc(-c2ccc(F)cc2)c1 [Compound 150, N-benzyl-4-(4-fluorophenyl)-N-methyl-1H-imidazole-1-carboxamide] | 1.2 % of control | 5.6 % of control | 3.8 % of control | – | – | – | – | – |
| CN(C(=O)n1nnc2ccccc21)C1CCC2(CC1)OCC(C)(C)CO2 [Compound 143, N-(3,3-dimethyl-1,5-dioxaspiro[5.5]undec-9-yl)-N-methyl-1H-benzotriazole-1-carboxamide] | 2.5 % of control | 0.4 % of control | 0.7 % of control | – | – | – | – | – |
| O=C(N1CCC(OCCCc2ccccc2)CC1)n1nnc2ccccc21 [Compound 135, (1H-benzo[d][1,2,3]triazol-1-yl)(4-(3-phenylpropoxy)piperidin-1-yl)methanone] | 0.1 % of control | 26.5 % of control | 30.1 % of control | – | – | – | – | – |
| C[C@@H](c1ccccc1)N(C)C(=O)n1nnc2ccccc21 [Compound 195, (S)—N-methyl-N-(1-phenylethyl)-1H-benzo[d][1,2,3]triazole-1-carboxamide] | 15.7 % of control | 9.1 % of control | 5.7 % of control | – | – | – | – | – |
| CN(CCCCCc1ccccc1)C(=O)n1nnc2ccccc21 [Compound 129, N-methyl-N-(5-phenylpentyl)-1H-benzo[d][1,2,3]triazole-1-carboxamide] | 0 % of control | 2.5 % of control | 2 % of control | – | – | – | – | – |
| NC(=O)c1ccc(Oc2cccc(-c3ncn(C(=O)N4CCN(c5ccccc5)CC4)n3)c2)cc1 [Compound 208, 4-(3-(1-(4-phenylpiperazine-1-carbonyl)-1H-1,2,4-triazol-3-yl)phenoxy)benzamide] | 0.2 % of control | 97.2 % of control | 96.7 % of control | – | – | – | – | – |
| CN(C(=O)n1nnc2ccccc21)c1ccc(Cl)cc1 [Compound 63, N-(4-chlorophenyl)-N-methyl-1H-benzo[d][1,2,3]triazole-1-carboxamide] | 12.6 % of control | – | – | – | – | – | 57 % of control | 49.7 % of control |
| CN(C(=O)n1cnc(-c2cccc(-c3cccc(OC(F)(F)F)c3)c2)c1)C1CCCCC1 [Compound 248, N-cyclohexyl-N-methyl-4-(3′-(trifluoromethoxy)biphenyl-3-yl)-1H-imidazole-1-carboxamide] | 68.9 % of control | 104.2 % of control | 57 % of control | – | – | – | – | – |

Results, then the compound that gave them:

| In Vitro FAAH activity, 100 nM (FAAH [1]) | In Vivo BRh 3 mg/kg 8 h, remaining FAAH activity (FAAH [2]) | In Vivo LVh 3 mg/kg 8 h, remaining FAAH activity (FAAH [3]) | In Vitro 100 nM (FAAH activity, % of control) (FAAH [1]) | In Vivo BRh 3 mg·kg 8 h (remaining FAAH activity, % of control) (FAAH [2]) | In Vivo LVh 3 mg·kg 8 h (remaining FAAH activity, % of control) (FAAH [3]) | In Vivo BRh 30 mg/kg 1 h, remaining FAAH activity (FAAH [2]; 30 mg/kg, 1 h) | In Vivo LVh 30 mg/kg 1 h, remaining FAAH activity (FAAH [3]; 30 mg/kg, 1 h) | Structure (SMILES) |
| --- | --- | --- | --- | --- | --- | --- | --- | --- |
| – | – | – | 1.6 % of control | 3.1 % of control | 3.7 % of control | – | – | CC1(C)COCN1C(=O)n1nnc2c(F)cc(F)cc21 [Compound no. 360, (4,6-difluoro-1H-benzo[d][1,2,3]triazol-1-yl)(4,4-dimethyloxazolidin-3-yl)methanone] |
| – | – | – | 95.6 % of control | 7.1 % of control | 11.7 % of control | – | – | COc1cc(-c2cn(C(=O)N3COCC3(C)C)cn2)ccc1F [Compound 351, (4,4-dimethyloxazolidin-3-yl)(4-(4-fluoro-3-methoxyphenyl)-1H-imidazol-1-yl)methanone] |
| – | – | – | 29.7 % of control | 22.8 % of control | 11.1 % of control | – | – | CN(C(=O)n1cnc(-c2ccc(O)c(F)c2)c1)C1CCCCC1 [Compound 330, N-cyclohexyl-4-(3-fluoro-4-hydroxyphenyl)-N-methyl-1H-imidazole-1-carboxamide] |
| – | – | – | 56.2 % of control | 137.6 % of control | 10.1 % of control | – | – | CN(C(=O)n1cnc(-c2cccc(O)c2)c1)C1CCCCC1 [Compound 307, N-cyclohexyl-4-(3-hydroxyphenyl)-N-methyl-1H-imidazole-1-carboxamide] |
| – | – | – | 99.2 % of control | 77.9 % of control | 32.4 % of control | – | – | CC1(C)COCN1C(=O)n1cnc(-c2ccccc2)c1Cl [Compound 295, (5-chloro-4-phenyl-1H-imidazol-1-yl)(4,4-dimethyloxazolidin-3-yl)methanone] |
| – | – | – | 88.5 % of control | 60 % of control | 19.5 % of control | – | – | CC1(C)COCN1C(=O)n1cnc(-c2ccc(O)c(F)c2)c1 [Compound 332, (4,4-dimethyloxazolidin-3-yl)(4-(3-fluoro-4-hydroxyphenyl)-1H-imidazol-1-yl)methanone] |
